From patent publication US12091411B2, “IRAK degraders and uses thereof” (Kymera Therapeutics, Inc., priority 2022, dated 2024)
Where two headings read alike, the source gives them in different places. Blank lines part the entries; values can stand above or below the compound they belong to.

Target: T1, IRAK4 (Homo sapiens, UniProt Q9NWZ3)
T1 construct: Degradation of IRAK4 in OCI-LY10 was quantitatively measured using Meso Scale Discovery technology; endogenous in cells; host or cells: OCI-LY10
T1 sequence (Q9NWZ3 1-460): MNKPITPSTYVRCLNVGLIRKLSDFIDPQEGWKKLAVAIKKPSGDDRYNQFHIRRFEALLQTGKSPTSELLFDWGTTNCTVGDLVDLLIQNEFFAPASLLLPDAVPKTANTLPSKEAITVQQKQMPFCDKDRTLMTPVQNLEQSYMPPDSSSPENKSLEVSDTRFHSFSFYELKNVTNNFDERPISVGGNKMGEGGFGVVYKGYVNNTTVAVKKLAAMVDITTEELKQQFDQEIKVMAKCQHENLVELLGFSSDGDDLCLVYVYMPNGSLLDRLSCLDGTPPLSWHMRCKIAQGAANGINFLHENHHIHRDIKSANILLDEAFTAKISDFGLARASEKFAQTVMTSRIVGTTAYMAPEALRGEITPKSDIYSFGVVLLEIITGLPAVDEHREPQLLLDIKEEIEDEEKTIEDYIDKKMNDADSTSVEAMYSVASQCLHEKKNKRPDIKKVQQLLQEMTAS
Test: IRAK4 MSD Degradation in OCI-LY10
Type: cell-based
Conditions: OCI-LY10 cells, MSD
How it was run: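 OCI-LY10 cells exposed to 8-point 1:3 compound series (top 1 to 10 μM) for 4 to 24 h at 37 °C, 5% CO2. Lysate IRAK4 quantified by MSD sandwich immunoassay. DC50 from three-parameter logistic fit, binned A (<0.01 μM) to D (>0.2 μM or not tested).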

[1] = 4 hrs incubation, read-out: IRAK4 degradation in OCI-LY10 at 4 hrs: DC50
[2] = 24 hrs incubation, read-out: IRAK4 degradation in OCI-LY10 at 24 hrs: DC50

Compound: Cc1cccc(C(=O)Nc2cc3cn([C@H]4CC[C@H](CN5CC[C@@H](c6cccc7c6n(C)c(=O)n7C6CCC(=O)NC6=O)[C@@H](F)C5)CC4)nc3cn2)n1 (stereo partly shown) [I-632]
DC50 [1]: > 200 nM
DC50 [2]: > 200 nM

Compound: Cn1c(=O)n(C2CCC(=O)NC2=O)c2cccc(C#CCN3CCN(C[C@H]4CC[C@H](n5cc(NC(=O)c6cnn7cccnc67)c(C(C)(C)O)n5)CC4)CC3)c21 (stereo partly shown) [I-284]
DC50 [1]: > 200 nM
DC50 [2]: > 200 nM

Compound: Cn1c(=O)n(C2CCC(=O)NC2=O)c2cccc(N3CCC(F)(CN4CC5(CCC(n6cc7cc(NC(=O)c8cccc(C(F)(F)F)n8)c(C#N)cc7n6)CC5)C4)CC3)c21 (stereo not shown) [I-567]
DC50 [1]: > 200 nM
DC50 [2]: > 200 nM

Compound: Cn1c(=O)n(C2CCC(=O)NC2=O)c2cccc(C#CCN3CCN(C[C@H]4CC[C@H](n5cc(NC(=O)c6cnn7cc(N8CCCCC8)cnc67)c(C(F)F)n5)CC4)CC3)c21 (stereo partly shown) [I-233]
DC50 [1]: > 200 nM
DC50 [2]: > 200 nM

Compound: CN(C[C@H]1CC[C@H](n2cc(NC(=O)c3cnn4ccc(N5CC6CCC(C5)O6)nc34)c(C(F)F)n2)CC1)C1CCN(c2cccc3c2n(C)c(=O)n3C2CCC(=O)NC2=O)CC1(F)F (stereo partly shown) [I-526]
DC50 [1]: > 200 nM
DC50 [2]: 10 to 100 nM

Compound: Cn1c(=O)n(C2CCC(=O)NC2=O)c2cccc(C3COC4(C3)CN(C[C@H]3CC[C@H](n5cc6cc(NC(=O)c7cccc(C(F)(F)F)n7)ncc6n5)CC3)C4)c21 (stereo partly shown) [I-688]
DC50 [1]: > 200 nM
DC50 [2]: < 10 nM

Compound: Cn1c(=O)n(C2CCC(=O)NC2=O)c2cccc(C#CCOC3CN(C[C@H]4CC[C@H](n5cc(NC(=O)c6cnn7ccc(N8C[C@H]9C[C@@H]8CO9)nc67)c(C(F)F)n5)CC4)C3)c21 (stereo partly shown) [I-600]
DC50 [1]: > 200 nM
DC50 [2]: > 200 nM

Continued, values first:

DC50 [1]: > 200 nM
DC50 [2]: 10 to 100 nM
Compound: Cn1c(=O)n(C2CCC(=O)NC2=O)c2cccc(C#CCN3CCN(C[C@H]4CC[C@H](n5cc(NC(=O)c6cnn7ccc(N8CCC9(CC9)C8)nc67)c(C(F)F)n5)CC4)CC3)c21 (stereo partly shown) [I-224]

DC50 [1]: > 200 nM
DC50 [2]: < 10 nM
Compound: Cc1cccc(C(=O)Nc2cc3cn([C@H]4CC[C@H](CN5CCC(c6cccc7c6n(C)c(=O)n7C6CCC(=O)NC6=O)C(F)(F)C5)CC4)nc3cc2C(C)(C)O)n1 (stereo partly shown) [I-617]

DC50 [1]: > 200 nM
DC50 [2]: > 200 nM
Compound: CC([C@H]1CC[C@H](n2cc(NC(=O)c3cnn4ccc(N5C[C@H]6C[C@@H]5CO6)nc34)c(C(F)F)n2)CC1)N1CCN(CCCc2cccc3c2n(C)c(=O)n3C2CCC(=O)NC2=O)CC1 (stereo partly shown) [I-195]

DC50 [1]: > 200 nM
DC50 [2]: < 10 nM
Compound: Cn1c(=O)n(C2CCC(=O)NC2=O)c2cccc(N3CC(O[C@@H]4CCN(C[C@H]5CC[C@H](n6cc(NC(=O)c7cnn8ccc(N9C[C@H]%10C[C@@H]9CO%10)nc78)c(C(F)F)n6)CC5)C[C@@H]4F)C3)c21 (stereo partly shown) [I-581]

DC50 [1]: > 200 nM
DC50 [2]: < 10 nM
Compound: Cn1c(=O)n(C2CCC(=O)NC2=O)c2cccc(C3CCN(C[C@H]4CC[C@H](n5cc6cc(NC(=O)c7cccc(C(F)(F)F)n7)ncc6n5)CC4)CC3(F)F)c21 (stereo partly shown) [I-447]

DC50 [1]: > 200 nM
DC50 [2]: < 10 nM
Compound: Cn1c(=O)n(C2CCC(=O)NC2=O)c2cccc(N3CC(N4CCN([C@H]5CC[C@H](n6cc(NC(=O)c7cnn8ccc(N9C[C@H]%10C[C@@H]9CO%10)nc78)c(C(F)F)n6)CC5)CC4)C3)c21 (stereo partly shown) [I-730]

DC50 [1]: < 10 nM
DC50 [2]: > 200 nM
Compound: Cn1c(=O)n(C2CCC(=O)NC2=O)c2cccc(C#CCN3CCN(C[C@H]4CC[C@H](n5cc(NC(=O)c6cnn7ccc(N8C9CCC8COC9)nc67)c(C(F)F)n5)CC4)CC3)c21 (stereo partly shown) [I-339]

DC50 [1]: > 200 nM
DC50 [2]: > 200 nM
Compound: Cn1c(=O)n(C2CCC(=O)NC2=O)c2cccc(C#CCOC3CCN(C[C@H]4CC[C@H](c5ccc(NC(=O)c6cnn7ccc(N8C[C@H]9C[C@@H]8CO9)nc67)c(C(F)F)c5)CC4)CC3)c21 (stereo partly shown) [I-182]

DC50 [1]: 10 to 100 nM
DC50 [2]: > 200 nM
Compound: Cn1c(=O)n(C2CCC(=O)NC2=O)c2cccc(C#CCOC3CCN(C[C@H]4CC[C@H](n5cc(NC(=O)c6cnn7ccc(N8C[C@H]9C[C@@H]8CO9)nc67)c(C(F)F)n5)CC4)CC3(F)F)c21 (stereo partly shown) [I-18]

DC50 [1]: 10 to 100 nM
DC50 [2]: > 200 nM
Compound: C[C@@H]1CN(C[C@H]2CC[C@H](n3cc(NC(=O)c4cnn5ccc(N6C[C@H]7C[C@@H]6CO7)nc45)c(C(F)F)n3)CC2)CC[C@H]1OCC#Cc1ccc2c(N3CCC(=O)NC3=O)cncc2c1 [I-49]
